Results as given in patent US4447607A, “Dibenzo diazacines” (The Upjohn Company, priority 1982, dated 1984).

Legend:
thromboxane synthetase = settings: prior art compounds, as noted in British patent specification; cited from earlier work
TXA2 synthetase = target: T1, TXA2 synthetase (Homo sapiens, UniProt P24557); experiment: TXA2 inhibition test: TXA2 generated from PGH2 with human platelet microsomes, response of superfused rabbit aortic strips; type: biochemical; settings: rabbit aorta response
T1 construct: human platelet microsomes (HPM); from tissue; host or cells: human platelet microsomes
T1 sequence (P24557 1-533): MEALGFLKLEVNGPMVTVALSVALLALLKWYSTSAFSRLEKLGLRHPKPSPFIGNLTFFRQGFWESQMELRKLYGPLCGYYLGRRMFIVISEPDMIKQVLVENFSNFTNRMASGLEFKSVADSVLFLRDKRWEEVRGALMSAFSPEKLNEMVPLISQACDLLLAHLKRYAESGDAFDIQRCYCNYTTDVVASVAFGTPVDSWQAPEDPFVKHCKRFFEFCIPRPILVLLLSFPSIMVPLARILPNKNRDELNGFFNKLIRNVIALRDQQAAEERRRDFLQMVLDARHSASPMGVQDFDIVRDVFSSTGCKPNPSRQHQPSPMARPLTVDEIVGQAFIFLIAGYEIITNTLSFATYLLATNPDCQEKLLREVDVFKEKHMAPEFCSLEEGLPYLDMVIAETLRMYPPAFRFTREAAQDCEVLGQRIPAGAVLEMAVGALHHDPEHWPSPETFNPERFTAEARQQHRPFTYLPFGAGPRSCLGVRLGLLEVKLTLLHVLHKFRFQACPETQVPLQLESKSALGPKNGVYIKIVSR
Experimental: The compounds of the present invention were tested for TXA2 inhibition as follows:
Rabbit aortic strips were superfused in series with Krebs solution. Thromboxane A2 (TXA2) was generated by mixing prostaglandin H2 (PGH2) with human platelet microsomes (HPM).
Potential inhibitors were tested by comparing the response of the rabbit aorta to the amount of TXA2 produced by mixing PGH2 and HPM without the test compound in the reaction medium and then the amount of TXA2 produced when the test compound was added to the HPM 5 minutes before the HPM was mixed with PGH2. […] For a discussion of TXA2 synthetase inhibition testing see, e.g., R. Gorman, supra.

effectiveness in inhibiting TXA2 formation (in words) (TXA2 synthetase)	Compound	inhibitory activity on thromboxane synthetase (in words) (thromboxane synthetase)
	CCCCCC=CC[C@@H](C=CC=CCC=CCCCC(=O)O)OO [12L-hydroperoxy-5,8,10,14-eicosatetraenoic acid]	very weak
most effective	c1cncc(-c2ccc3c(c2)CN2CN3Cc3cc(-c4cccnc4)ccc32)c1 [Example 1, 2,8-Di(3-pyridyl)-6H,12H-5,11-methanodibenzo[b,f][1,5]diazocine]	
	CC(Cc1ccc(O)c(O)c1)C(C)Cc1ccc(O)c(O)c1 (stereo not shown) [nordihydroguaiaretic acid]	very weak
	sodium p-benzyl-4(1-oxo-2-(4-chlorobenzyl)-3-phenylpropyl)phenyl phosphate	very weak
